From publication PMC10041525, “New Dual Inhibitors of Bacterial Topoisomerases with Broad-Spectrum Antibacterial Activity and In Vivo Efficacy against Vancomycin-Intermediate Staphylococcus aureus” (Journal of Medicinal Chemistry, 2023)
In brackets after ≈: the same amount, converted by molar mass. Read-outs that look alike come from different tables or passages of the source.

What was measured:
Format in all cases: cell-based
[1] = system: 100 A. baumannii strains (50 MDR, 50 non-MDR); experiment: MIC broth microdilution at IHMA Europe, panel of 100 strains; settings: for MIC / MIC50 / MIC90: Acinetobacter baumannii; for MIC50: read-out: MIC 50; for MIC90: read-out: MIC 90
E. coli ATCC 35218 = experiment: IHMA QC MIC; settings: Escherichia coli, ATCC35218; read-out: MIC (QC, repeated tests)
Description: The panel of Hungarian clinical isolates and controls measured following the same method as detailed above, and albeit measurements were carried out in 384-well microtiter plates (Corning Inc.).

E. coli ATCC 25922 = experiment: IHMA QC MIC; settings: Escherichia coli, ATCC25922; read-out: MIC (QC, repeated tests)

CO/N=C(\C(=O)N[C@@H]1C(=O)N2C(C(=O)[O-])=C(C[N+]3(C)CCCC3)CS[C@H]12)c1csc(N)n1 [Cefepime, cefepime]
MIC ([1]; A. baumannii IHMA 2177232, Lithuania 2020, MDR, read-out: MIC): 32 µg/mL (≈ 66.6 µM) | MIC ([1]; A. baumannii IHMA 2177489, Lithuania 2020, MDR, read-out: MIC): > 32 µg/mL | MIC ([1]; A. baumannii IHMA 2178574, Ukraine 2020, Non-MDR, read-out: MIC): ≤ 0.25 µg/mL | MIC ([1]; A. baumannii IHMA 2180134, Malaysia 2020, Non-MDR, read-out: MIC): 1 µg/mL (≈ 2.08 µM) | MIC ([1]; A. baumannii IHMA 2180142, Malaysia 2020, MDR, read-out: MIC): > 32 µg/mL | MIC ([1]; A. baumannii IHMA 2181370, Morocco 2020, MDR, read-out: MIC): > 32 µg/mL | MIC ([1]; A. baumannii IHMA 2183849, Argentina 2020, Non-MDR, read-out: MIC): 1 µg/mL (≈ 2.08 µM) | MIC ([1]; A. baumannii IHMA 2184382, Japan 2020, Non-MDR, read-out: MIC): 1 µg/mL (≈ 2.08 µM) | MIC ([1]; A. baumannii IHMA 2193375, Venezuela 2020, MDR, read-out: MIC): > 32 µg/mL | MIC ([1]; A. baumannii IHMA 2193485, Venezuela 2020, Non-MDR, read-out: MIC): 1 µg/mL (≈ 2.08 µM) | MIC ([1]; A. baumannii IHMA 2193607, Venezuela 2020, MDR, read-out: MIC): > 32 µg/mL | MIC ([1]; A. baumannii IHMA 2196914, South Africa 2020, MDR, read-out: MIC): 32 µg/mL (≈ 66.6 µM) | MIC ([1]; A. baumannii IHMA 2196959, South Africa 2020, MDR, read-out: MIC): > 32 µg/mL | MIC ([1]; A. baumannii IHMA 2203763, Spain 2020, MDR, read-out: MIC): > 32 µg/mL | MIC ([1]; A. baumannii IHMA 2205144, Korea, South 2020, MDR, read-out: MIC): 32 µg/mL (≈ 66.6 µM) | MIC ([1]; A. baumannii IHMA 2206459, Taiwan 2020, MDR, read-out: MIC): > 32 µg/mL | MIC ([1]; A. baumannii IHMA 2206507, Taiwan 2020, Non-MDR, read-out: MIC): 0.5 µg/mL (≈ 1.04 µM) | MIC ([1]; A. baumannii IHMA 2215307, Hong Kong 2020, Non-MDR, read-out: MIC): 1 µg/mL (≈ 2.08 µM) | MIC ([1]; A. baumannii IHMA 2216586, Taiwan 2020, MDR, read-out: MIC): 32 µg/mL (≈ 66.6 µM) | MIC ([1]; A. baumannii IHMA 2223200, Colombia 2020, Non-MDR, read-out: MIC): 1 µg/mL (≈ 2.08 µM) | MIC ([1]; A. baumannii IHMA 2224017, Panama 2020, MDR, read-out: MIC): 32 µg/mL (≈ 66.6 µM) | MIC ([1]; A. baumannii IHMA 2224303, Panama 2020, Non-MDR, read-out: MIC): 4 µg/mL (≈ 8.32 µM) | MIC ([1]; A. baumannii IHMA 2231797, Greece 2020, MDR, read-out: MIC): > 32 µg/mL | MIC ([1]; A. baumannii IHMA 2233099, Guatemala 2020, MDR, read-out: MIC): > 32 µg/mL | MIC ([1]; A. baumannii IHMA 2233430, Kazakhstan 2020, MDR, read-out: MIC): > 32 µg/mL | MIC ([1]; A. baumannii IHMA 2238964, Thailand 2020, MDR, read-out: MIC): > 32 µg/mL | MIC ([1]; A. baumannii IHMA 2239052, Thailand 2020, Non-MDR, read-out: MIC): 0.5 µg/mL (≈ 1.04 µM) | MIC ([1]; A. baumannii IHMA 2261633, Canada 2020, Non-MDR, read-out: MIC): 0.5 µg/mL (≈ 1.04 µM) | MIC ([1]; A. baumannii IHMA 2274234, South Africa 2020, MDR, read-out: MIC): 32 µg/mL (≈ 66.6 µM) | MIC ([1]; A. baumannii IHMA 2274364, South Africa 2020, MDR, read-out: MIC): > 32 µg/mL | MIC ([1]; A. baumannii IHMA 2275237, Chile 2020, Non-MDR, read-out: MIC): 1 µg/mL (≈ 2.08 µM) | MIC ([1]; A. baumannii IHMA 2275751, Jordan 2020, MDR, read-out: MIC): > 32 µg/mL | MIC ([1]; A. baumannii IHMA 2316205, United States 2020, MDR, read-out: MIC): > 32 µg/mL | MIC ([1]; MDR n = 50, read-out: MAX (maximum MIC; all strains inhibited)): > 32 µg/mL | MIC50 ([1]; MDR n = 50): > 32 µg/mL | MIC90 ([1]; MDR n = 50): > 32 µg/mL | MIC ([1]; all isolates n = 100, read-out: MAX (maximum MIC; all strains inhibited)): > 32 µg/mL | MIC50 ([1]; all isolates n = 100): 8 µg/mL (≈ 16.6 µM) | MIC90 ([1]; all isolates n = 100): > 32 µg/mL | MIC ([1]; all isolates n = 100, read-out: MIN (minimum MIC)): ≤ 0.25 µg/mL | MIC ([1]; non-MDR n = 50, read-out: MAX (maximum MIC)): 8 µg/mL (≈ 16.6 µM) | MIC50 ([1]; non-MDR n = 50): 1 µg/mL (≈ 2.08 µM) | MIC90 ([1]; non-MDR n = 50): 4 µg/mL (≈ 8.32 µM) | MIC ([1]; non-MDR n = 50, read-out: MIN (minimum MIC)): ≤ 0.25 µg/mL | Percentage I ([1]; MDR n = 50): 6% | Percentage S ([1]; MDR n = 50): 0% | Percentage I ([1]; all n = 100, CLSI breakpoints): 3% | Percentage R ([1]; all n = 100, CLSI breakpoints): 47% | Percentage S ([1]; all n = 100, CLSI breakpoints): 50% | Percentage I ([1]; non-MDR n = 50): 0% | Percentage R ([1]; non-MDR n = 50): 0% | MIC (E. coli ATCC 35218): ≤ 0.25 µg/mL | MIC (E. coli ATCC 25922): ≤ 0.25 µg/mL
